The target of data set [1] is T1, 5HT2C receptor (Homo sapiens, UniProt P28335).
T1 construct: beta-galactosidase enzyme fragment (PathHunter complementation tag); host or cells: PathHunter cell lines
The data set can be described thus: GPCRmax screen, antagonist mode. Format: cell-based. To be noted: 1 or 10 mM; threshold 50%.

Data set [2] addresses T2, 5HT2A receptor (Homo sapiens, UniProt P28223).
T2 construct: beta-galactosidase enzyme fragment (PathHunter complementation tag); host or cells: PathHunter cell lines
As to the kind of experiment: GPCRmax screen, agonist mode. To be noted: 1 or 10 mM; threshold 30%. Format: cell-based.

Data set [3] concerns myelin basic protein (MBP). As to the kind of experiment: Immunohistochemistry of myelin basic protein. Format: in vivo, rat. To be noted: 10 mg/kg IP, 24 h. Here is the method: Immunohistochemistry: The in-life portion of the study was conducted at WuXi Apptec (Cranbury, NJ). Sectioning and staining of brains took place at Neuroscience Associates (NSA, Knoxville, TN). […] Brains were post-fixed in PFA before shipment to NSA for processing and staining. Hemisected brains were mounted, sectioned and stained using standard protocols with myelin-basic protein primary antibody (MBP SMI-99, 1:5000, Biolegend, San Diego, CA) and anti-mouse biotinylated secondary antibody (BA-2001, Vector Laboratories, Newark, CA). Slides were imaged using a Huron Digital Pathology TissueScope LE120 whole slide scanning system. 20× objective was used with a 0.4 μm/pixel resolution.

Data set [4] concerns the target T1, 5HT2C receptor. As to the kind of experiment: GPCRmax screen, agonist mode. Conditions: 1 or 10 mM; threshold 30%. Format: cell-based.
In data set [5] the test system is rats (Sprague Dawley; Flinders Sensitive Line). Conditions: cited from earlier work.
The conditions of data set [6]: retrospective reports / meta-analysis of overdose deaths; cited from earlier work.
Data set [7] deals with gene expression in amygdala, frontal cortex, hippocampus. The data set can be described thus: RNA-sequencing of brain areas after a single dose. Format: in vivo, rat.
Data set [8] relates to mice. Conditions: MDMA 7.5 mg/kg 30 minutes prior to extinction training (Young et al. 2015); cited from earlier work.

Structures are written as SMILES. Where two headings read alike, the source gives them in different places.

T1 sequence (P28335 33-458): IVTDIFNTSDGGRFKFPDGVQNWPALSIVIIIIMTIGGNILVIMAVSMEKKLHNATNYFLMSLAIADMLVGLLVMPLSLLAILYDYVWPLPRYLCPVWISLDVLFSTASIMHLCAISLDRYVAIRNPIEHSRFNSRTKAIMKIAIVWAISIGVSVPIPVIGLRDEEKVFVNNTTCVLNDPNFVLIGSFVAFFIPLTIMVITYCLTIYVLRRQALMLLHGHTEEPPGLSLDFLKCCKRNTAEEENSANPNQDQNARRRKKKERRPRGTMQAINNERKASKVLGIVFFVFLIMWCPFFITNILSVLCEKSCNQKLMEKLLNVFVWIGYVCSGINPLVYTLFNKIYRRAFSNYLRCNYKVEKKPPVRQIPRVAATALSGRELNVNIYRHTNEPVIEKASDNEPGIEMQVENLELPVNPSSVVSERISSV
T2 sequence (P28223 whole entry, the tested form may be a part): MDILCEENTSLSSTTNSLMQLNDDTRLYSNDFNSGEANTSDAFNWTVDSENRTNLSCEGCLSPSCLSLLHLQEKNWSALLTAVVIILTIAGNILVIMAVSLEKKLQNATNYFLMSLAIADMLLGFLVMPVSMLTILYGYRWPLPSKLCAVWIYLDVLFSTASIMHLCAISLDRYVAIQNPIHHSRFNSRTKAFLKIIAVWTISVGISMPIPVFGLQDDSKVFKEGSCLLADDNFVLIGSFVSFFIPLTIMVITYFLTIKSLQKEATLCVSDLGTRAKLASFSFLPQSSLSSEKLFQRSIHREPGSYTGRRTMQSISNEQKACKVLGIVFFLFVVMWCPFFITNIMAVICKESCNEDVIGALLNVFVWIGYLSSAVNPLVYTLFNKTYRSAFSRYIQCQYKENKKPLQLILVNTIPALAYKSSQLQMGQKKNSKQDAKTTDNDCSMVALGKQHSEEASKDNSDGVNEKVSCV

On to `CNC(C)Cc1ccc2c(c1)OCO2` (racemic) [MDMA, 3,4-Methylenedioxymethamphetamine], for which the “antagonist activity (% inhibition)” value in data set [1] is reported as 52.2%. Also, the agonist % activity in data set [2] came to 27.5%; in data set [4], 28.0%. In addition, the “MBP expression, basolateral nucleus of the amygdala, vs. vehicle” value in data set [3] was “significant reduction in MBP”. In addition, the “MBP expression, central nucleus of the amygdala, vs. vehicle” value in data set [3] is recorded as “significant reduction in MBP”. Moreover, the “MBP expression, cortex (control region)” value in data set [3] is reported as “No change in MBP”. In addition, the “reduction in immobility (FST)” value in data set [5] (MDMA 5 mg/kg, Flinders Sensitive Line rats) is given as 45%; in data set [5] (MDMA 5 mg/kg, Sprague Dawley rats (Majumder et al. 2011)), 45%; in data set [5] (MDMA 10 mg/kg, Flinders Sensitive Line rats), 93%; in data set [5] (MDMA 10 mg/kg, Sprague Dawley rats (Majumder et al. 2011)), 78%. In addition, in data set [6], the “blood concentration in overdose deaths” value was 478 to 53900 ng/mL. For the same molecule, in data set [7] (10 mg/kg IP), the “more genes regulated than methylone, frontal cortex” value was roughly 72%. Moreover, in data set [7] (10 mg/kg IP each), the “genes regulated by MDMA that are also regulated by methylone, amygdala” value stood at 7%. For the same molecule, the “reduced freezing vs. saline (extinction recall)” value in data set [8] is 35%.

These data come from patent US12343326B2, “Psychoactive medicines and their use for treating psychiatric and neurological conditions and disorders” (Transcend Therapeutics, Inc., priority 2021, dated 2025).
